Data reported in PMC11054271, “ABCG2 Transports the Flukicide Nitroxynil and Affects Its Biodistribution and Secretion into Milk” (Pharmaceutics, 2024).

How the values were obtained:
murine Abcg2 [1] = assay: Plasma pharmacokinetics in wild-type and Abcg2−/− male mice; assay type: in vivo; conditions: 10 mg/kg s.c.
Experimental: (§1) All in vivo experiments were carried out using wild-type and Abcg2^−/− mice aged between 8 and 17 weeks, all of >99% FVB/N genetic background, generated and gently supplied by A. H. Schinkel (Netherlands Cancer Institute). Mice were housed and handled complying with institutional and ARRIVE guidelines and European legislation (EU Directive 2010/63/EU for animal experiments). Additionally, experimental procedures were approved by the Animal Care and Use Committee of the University of León and the Junta de Castilla y León (ULE_011_2019).
(§2) For pharmacokinetic experiments, a single dose of nitroxynil at 10 mg/kg was administered subcutaneously to wild-type and Abcg2^−/− male mice (n = 4–5, for each time point). Distomicide® (250 mg/mL) commercial solution was dissolved in saline (sodium chloride 0.9%) and dosed at 200 μL per 30 g body weight. Blood samples were collected at different time points (0.5, 3, 4.5, 6, 24, 48 and 96 h) and heparinized blood samples were centrifugated for 15 min at 3000× g. […]
(§3) Plasma, milk and tissue samples from each animal were individually processed and analyzed without pooling, while samples from transport assays were not processed. […]
(§4) Waters 2695 separation module and Waters 2998 UV photodiode array detector set at 270 nm were used for samples analysis. […] Limit of detection (LOD) and quantification (LOQ) were calculated as previously described. […]

murine Abcg2 [2] = target: T1, murine Abcg2 (Mus musculus, UniProt Q7TMS5); assay: Tissue distribution in wild-type and Abcg2−/− male mice; assay type: in vivo; design: from tissue; host or cells: whole animal: wild-type vs Abcg2-/- mice, >99% FVB/N background
T1 sequence (Q7TMS5 1-657): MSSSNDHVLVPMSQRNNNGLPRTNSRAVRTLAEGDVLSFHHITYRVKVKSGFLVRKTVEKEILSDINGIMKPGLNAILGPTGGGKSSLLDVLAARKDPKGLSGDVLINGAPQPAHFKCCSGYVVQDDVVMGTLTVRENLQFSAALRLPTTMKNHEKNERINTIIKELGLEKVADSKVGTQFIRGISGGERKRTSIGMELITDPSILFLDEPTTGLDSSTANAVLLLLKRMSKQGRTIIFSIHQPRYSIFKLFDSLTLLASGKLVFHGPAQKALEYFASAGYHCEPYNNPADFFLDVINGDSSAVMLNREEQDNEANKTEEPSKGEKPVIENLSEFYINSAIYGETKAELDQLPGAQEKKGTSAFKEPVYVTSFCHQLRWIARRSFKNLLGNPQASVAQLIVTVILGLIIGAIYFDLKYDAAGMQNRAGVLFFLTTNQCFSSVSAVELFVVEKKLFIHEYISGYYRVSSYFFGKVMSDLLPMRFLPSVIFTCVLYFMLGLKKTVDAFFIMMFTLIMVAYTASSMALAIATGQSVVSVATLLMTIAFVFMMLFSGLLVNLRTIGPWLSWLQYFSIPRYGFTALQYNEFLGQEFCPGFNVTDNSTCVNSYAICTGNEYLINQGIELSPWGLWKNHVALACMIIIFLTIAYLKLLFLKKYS
Experimental: as §1
For pharmacokinetic experiments, a single dose of nitroxynil at 10 mg/kg was administered subcutaneously to wild-type and Abcg2^−/− male mice (n = 4–5, for each time point). Distomicide® (250 mg/mL) commercial solution was dissolved in saline (sodium chloride 0.9%) and dosed at 200 μL per 30 g body weight. Blood samples were collected at different time points (0.5, 3, 4.5, 6, 24, 48 and 96 h) and heparinized blood samples were centrifugated for 15 min at 3000× g. Organs were also collected at 24 and 96 h after euthanasia. Linear trapezoidal rule was used to calculate the area under the plasma concentration–time curve (AUC) parameter.
Plasma, milk and tissue samples from each animal were individually processed and analyzed without pooling, while samples from transport assays were not processed. Tissue samples were homogenized in a mixture of 50% water/50% methanol HCl 0.5% (v/v); 1 mL solution per 0.1 g tissue. The entire amount of collected milk (74.7–295.1 mg) and 100 μL plasma and tissue homogenates were processed. To each sample, 10 μL of a nitrofurantoin solution (10 μg/mL for plasma and milk and 2 μg/mL for homogenized tissues) was added as an internal standard and 150 μL acetonitrile was used to precipitate the proteins. The mixture was vortexed horizontally for 15 min and centrifugated at 10,000× g for 5 min at 4 °C. Supernatant was transferred to a new tube and dried at 40 °C under N2 stream. Samples were reconstituted in 100 μL of mobile phase and 50 μL was injected into HPLC. Standards were subjected to the same procedures as samples.
Waters 2695 separation module and Waters 2998 UV photodiode array detector set at 270 nm were used for samples analysis. Chromatographic conditions for nitroxynil detection were based on previously described methods, with minor modifications. Chromatographic separation was achieved on a reverse-phase column (Synergy 4 μm Hydro–RP 80 Å, 250 × 4.60 mm; Phenomenex®, Torrance, CA, USA) using an isocratic binary mobile phase consisting of 25 mM potassium phosphate monobasic (KH2PO4), pH 4: acetonitrile (70:30 for culture samples and 80:20 for animal samples) at a flow rate of 1 mL/min. Autosampler and column temperature were 4 °C and 40 °C, respectively. Limit of detection (LOD) and quantification (LOQ) were calculated as previously described. For cell culture samples, LOD and LOQ were 0.003 μg/mL and 0.007 μg/mL, respectively. For in vivo samples, LOD was in the range of 0.01–0.07 μg/mL and LOQ in the range of 0.03–0.15 μg/mL.

[3] = design: method as in PMID 7180778; conditions: cited from earlier work
murine Abcg2 [4] = target: T1, murine Abcg2; assay: Plasma pharmacokinetics in wild-type and Abcg2−/− male mice; assay type: in vivo; design: from tissue; host or cells: whole animal: wild-type vs Abcg2-/- mice, >99% FVB/N background; conditions: 10 mg/kg s.c.
Experimental: as §1, §2, §3, §4

[5] = wild-type male mice, 96 h, 10 mg/kg s.c.

N#Cc1cc(I)c(O)c([N+](=O)[O-])c1 [nitroxynil]
AUC (murine Abcg2 [1]; FVB/N, mouse, plasma, sc, Abcg2−/− male mice, 0.5-96 h): 3530 ± 130 µg·h/mL | Time of Cmax (sampling point) (murine Abcg2 [1]; both type of mice (wild-type and Abcg2−/−), male): 3 h | Concentration in kidney, small intestine and testis, fold higher in Abcg2−/− mice (murine Abcg2 [2]; abstract statement, time not given): ~2 fold | Small intestine levels, fold higher in Abcg2−/− compared with wild-type (murine Abcg2 [2]; male mice, 24 h, 10 mg/kg s.c.): 1.4 fold | Spleen accumulation, fold higher in Abcg2−/− compared with wild-type (murine Abcg2 [2]; male mice, 24 h, 10 mg/kg s.c.): 1.7 fold | Testis concentration, fold higher in Abcg2−/− compared with wild-type (murine Abcg2 [2]; male mice, 24 h, 10 mg/kg s.c.): ~1.6 fold | Tissue concentration, liver (murine Abcg2 [2]; [5]): <LOQ | Tissue concentration, small intestine (murine Abcg2 [2]; [5]): <LOQ | Tissue concentration, spleen (murine Abcg2 [2]; [5]): <LOQ | Tissue concentration, testis (murine Abcg2 [2]; [5]): <LOQ | Time after treatment at which residues have been found in tissues [3]: ≤ 90 days | AUC (murine Abcg2 [4]; FVB/N, mouse, plasma, sc, wild-type male mice, 0.5-96 h): 1920 ± 49.1 µg·h/mL | Plasma AUC, fold higher in Abcg2−/− compared with wild-type (murine Abcg2 [4]; male mice): 1.8 fold
